According to patent US20120328549A1, “OIL COMPOSITIONS” (ANTERIOS, INC., priority 2011, published 2012):

Tested on: Axillary Sweating
Assay: Clinical study of axillary sweating by gravimetric sweat measurement, double-blind versus placebo (water)
Assay type: in vivo, human
Description: The purpose of the study was to determine if Labrafac® Lipophile WL 1349 is biologically active in reducing sweating. […] Some subjects received treatment with the potentially biologically active substance and some subjects received treatment with a placebo, i.e. water. Neither the subject nor the investigator knew which treatment the subject was receiving.
Two weeks after a single treatment, subjects were re-assessed by gravimetric sweat measurement to determine the degree of sweat reduction. A comparison of post-treatment sweat production between the treatment groups was made to determine the degree of sweat reduction by the potentially biologically active substance.
• able to understand and give written informed consent • ages 18-70 years of age • diagnosis of moderate to severe primary axillary hyperhidrosis • Hyperhidrosis Disease Severity Scale score of >3 (the HDSS scale is described below) • >50 mg of sweat production/axilla in 5 minutes as measured gravimetrically • willingness to use only over-the-counter deodorants during the course of the study • willingness to shave underarms prior to each study visit • female subjects must have a negative urine pregnancy test and be non-lactating at the initial (“Baseline”) study site visit • patients should be in good general health as determined by the investigator and free of any disease that may interfere with study evaluations
The sweat production of the subject is measured gravimetrically by the following procedure: • The subject was placed in a room with relatively constant temperature and humidity for at least 30 min. • The subject was placed in a semi-reclining position with the axilla fully exposed and the arm resting comfortably above the head. • The subject's axilla was dried gently with a cotton gauze pad. • The investigator used a forceps to place one filter paper (90 mm diameter) on a balance sensitive to 0.1 mg and recorded its weight. • The investigator used a forceps to place the measured filter paper on the axilla, covered it with plastic and taped the edges of the bag against the subject's skin with hypoallergenic tape to form a seal around the plastic bag. • After 5 minutes, the investigator gently removed the tape and plastic from the subject's axilla and then, using forceps, immediately placed the filter paper onto the scale to record its weight. The scale was then dried and zero balanced. • This measurement was then repeated as described above with the other axilla.
If the subject was eligible for treatment on this basis, the subject was then treated. For treatment, one of the study preparations (0.3 mL/axilla) was applied topically with a gloved finger by the investigator to the subject's skin of the axilla. The preparation was administered in small increments to avoid run-off. The liquid was rubbed-in until vanished. […]
The subject was scheduled for a follow-up office visit two weeks after the treatment. At the follow-up office visit, the subject was questioned as to their compliance with the instructions regarding which medications not to use between treatment and the two week follow-up office visit. […] If the subject was compliant, the subject was re-assessed using the gravimetric sweat measurement procedure.
The study was conducted at multiple study sites and conducted in compliance with Good Clinical Practice standards. […] Two weeks after the treatment, each subject was re-assessed by gravimetric sweat measurement. […]

CCCCCCCCCCCCCC(=O)OC(C)C [Isopropyl Myristate]
greater effectiveness in reducing sweat production than subjects treated with placebo (1.89 mg per axilla topical, based on share of subjects with at least 30% reduction): 191% | conclusion on activity in reducing sweat production (1.89 mg per axilla topical, two weeks after treatment): biologically active in reducing sweat production | percent of subjects with at least a 30% reduction in sweat production compared to Baseline (1.89 mg per axilla topical, two weeks after treatment, control group 29%): 55% | greater reduction in sweat production than the subjects in the control group (1.89 mg per axilla topical, two weeks after treatment, versus placebo (53 mg reduction)): 195% | reduction in sweat production (average) as measured by gravimetric sweat measurement (subjects with primary axillary hyperhidrosis, single topical treatment, 1.89 mg per axilla, two weeks after treatment, 5 minute collection): 103 mg
